Patent publication US10954262B2, “Tunicamycin analogues” (Oxford University Innovation Limited, priority 2017, dated 2021)
Values after ≈ are worked out from the molar mass of the structure shown. Structures can show the parent of a compound that is named as a salt. Where two headings read alike, the source gives them in different places.

What was measured:
[1] = system: HepG2 liver cells; assay: Cell proliferation assay / cell morphology (cytotoxicity); assay type: cell-based, human; settings: for Minimum lethal dose: HepG2; for viable cells: human
Description: (§1) Underlying scaffolds A, B, C and D and lipid-varied analogues E1 to E7 were assayed for cytotoxicity towards human liver cells (Hep2G) and human kidney cells (HEK293).
(§2) Mammalian cells were cultured in DMEM medium supplemented with 10% heat inactivated fetal bovine serum (FBS, v/v). The cultures were maintained in a humidified incubator at 37° C. in 5% CO2/95% air. FBS was reduced to 2% for the cell proliferation assay.
(§3) In sterile 96-well plate, each well was seeded with 1×10^5 cells. The cells were then grown confluent overnight in 100 μL DMEM with 10% FBS. The medium was replenished with DMEM with 2% FBS and added vehicle control or test substance the next day. For test substance in methanol, stock was added to 25 μL of DMEM with 2% FBS or PBS and placed in a laminar flow hood to let the methanol evaporate (about 1-3 hrs). Once the methanol has evaporated, DMEM with 2% FBS was added to final volume of 100 μL of desired test concentration. […] Cells were grown for additional 24 hrs. The cell viability was determined by using a Promega CellTiter 96 AQueous One Solution Cell Proliferation Assay System following the manufacturer's protocol.

[2] = system: HEK293 kidney cells; assay: as above; assay type: cell-based, human; settings: for Minimum lethal dose: HEK293; for viable cells: human
Description: as §1, §2, §3

[3] = Single-dose PK study, intraperitoneal injection; assay type: in vivo; settings: mice
Description: The initial dose was 30 mg/kg. The x-axis indicates the time in hours after the initial injection and the y-axis indicates the blood plasma concentration of TM-8 in μg/mL in the mice.
A single-dose PK study was done using 16 mice at a dose of 30 mg/kg for the TM-8 analogue, di-N-octanoyl-tunicamycin. […] This study confirmed that the formulation was suitable for injections, and the drug is stable enough in physiological conditions.

[4] = system: Bacillus subtilis (EC1524); assay: Kirby-Bauer disc diffusion susceptibility test; assay type: cell-based; settings: for zone of inhibition at 5 µg/disc: 6 mm disc impregnated with 5 μg, 20 hours, 35° C., read-out: Diffusion distance (zone diameter)
Description: (§4) Bioactivity was assessed using the Kirby-Bauer disc diffusion susceptibility test. Oxoid Blank Discs were impregnated with the desired test substance. A 0.5 McFarland standard inoculum was prepared by adding 3-5 single colonies to 10 mL MH broth in a 15 mL falcon tube and standardised to 0.5 McFarland standard. The inoculum was used within 10 minutes. A sterile cotton swab was dipped in the inoculum, gently pressed against the side of the tube to remove excess liquid, and generously streaked on MH agar plate to fully cover the plate. The impregnated disc was carefully placed on the agar. The plate was incubated at 35° C. for 20 hrs overnight. A digital calliper was used to measure the zone diameter. The recorded zone diameter is an average of three zone diameters measured of one zone.
(§5) Each 6 mm disc was impregnated with 5 μg of the relevant compound (TM, A, B, C, D, or any of E1 to E7), and the diffusion zone recorded after 20 hours.
(§6) Results are shown for E2 to E7 and TM. Values quoted are zone diameters, with larger numbers indicating higher antibacterial activity.

[5] = system: Bacillus cereus (ATCC11778); assay: Kirby-Bauer disc diffusion susceptibility test; assay type: cell-based; settings: for zone of inhibition at 5 µg/disc: ATCC11778, 6 mm disc impregnated with 5 μg, 20 hours, 35° C., read-out: Diffusion distance (zone diameter)
Description: as §4, §5, §6

[6] = system: Pseudomonas aeruginosa (ATCC27853); assay: microbe, parasite or virus in culture; assay type: cell-based
[7] = system: Bacillus cereus (ATCC11778); assay: microbe, parasite or virus in culture; assay type: cell-based; settings: for MIC: MH broth, 35° C., 20-24 hours; for IC50: OD600 dose-response curve; for MBC: additional 20 hours on MH agar
[8] = system: Pseudomonas aeruginosa (ATCC27853); assay: Kirby-Bauer disc diffusion susceptibility test; assay type: cell-based; settings: 6 mm disc, 5 μg
Description: as §4, §5
Underlying scaffolds A, B, C and D and lipid-varied analogues E1 to E7 were assayed for potency against Pseudomonas aeruginosa (ATCC27853), according to the methods of Example 2. Results of the Kirby-Bauer disc diffusion susceptibility test conducted using Pseudomonas aeruginosa (ATCC27853) as a test organism are shown in FIG. 2 and in Table 3. MIC, MBC and IC50 values were also obtained as in Example 2.

[9] = system: Bacillus subtilis (EC1524); assay: microbe, parasite or virus in culture; assay type: cell-based; settings: for MIC: MH broth, 35° C., 20-24 hours; for IC50: OD600 dose-response curve; for MBC: additional 20 hours on MH agar
[10] = system: Mycobacterium tuberculosis H37RV; assay: MIC in GAST/Fe and 7H9/ADC/Tw growth medium at 1 and 2 weeks; assay type: cell-based; settings: for MIC: Mycobacterium tuberculosis, H37RV

| SMILES | Minimum lethal dose [1] [µg/mL] | Minimum lethal dose [2] [µg/mL] | zone of inhibition at 5 µg/disc [4] [mm] | zone of inhibition at 5 µg/disc [5] [mm] | IC50 [6] [µg/mL] | MBC [6] [µg/mL] | MIC [6] [µg/mL] | MIC [7] [µg/mL] | IC50 [7] [µg/mL] | MBC [7] [µg/mL] | Diffusion distance [8] [mm] | MIC [9] [µg/mL] | IC50 [9] [µg/mL] | MBC [9] [µg/mL] | viable cells [1] [%] | viable cells [2] [%] | other results |
| --- | --- | --- | --- | --- | --- | --- | --- | --- | --- | --- | --- | --- | --- | --- | --- | --- | --- |
| CCCCCCCC(=O)NC1C(OC2OC(C[C@@H](O)[C@H]3O[C@@H](n4ccc(=O)[nH]c4=O)[C@H](O)[C@@H]3O)C(O)C(O)[C@H]2NC(=O)CCCCCCC)OC(CO)[C@@H](O)C1O (stereo partly shown) [Compound E3, Di-N-octanoyl-tunicamycin] | >400 | >400 | 16 | 12 | 46.5 (≈ 56.8 µM) | > 400 | 100 (≈ 122 µM) | 6.25 (≈ 7.63 µM) | 0.782 (≈ 0.955 µM) | 50 (≈ 61.1 µM) | 9 | 0.78 (≈ 0.952 µM) | 0.201 (≈ 0.246 µM) | > 0.98 |  |  | Detectability in blood plasma ([3]; 6 hours after intraperitoneal injection, 30 mg/kg): easily detectable; Stability in physiological conditions ([3]; 30 mg/kg intraperitoneal): stable enough |
| CCCCCCCCC(=O)NC1C(OC2OC(C[C@@H](O)[C@H]3O[C@@H](n4ccc(=O)[nH]c4=O)[C@H](O)[C@@H]3O)C(O)C(O)[C@H]2NC(=O)CCCCCCCC)OC(CO)[C@@H](O)C1O (stereo partly shown) [Compound E4, Di-N-nonanoyl-tunicamycin] | >400 | >400 | 16 | 13 | 55 (≈ 64.9 µM) | 400 (≈ 472 µM) | 100 (≈ 118 µM) | 0.78 (≈ 0.921 µM) | 0.0723 (≈ 0.0854 µM) | 25 (≈ 29.5 µM) | 13 | 0.024 (≈ 0.0283 µM) | 0.0146 (≈ 0.0172 µM) | > 0.06 | > 75 | > 75 | MIC lower than naturally occurring tunicamycin TM ([10]; in some cases): approximately 5 fold |
| CCCCCCCCCC(=O)NC1C(OC2OC(C[C@@H](O)[C@H]3O[C@@H](n4ccc(=O)[nH]c4=O)[C@H](O)[C@@H]3O)C(O)C(O)[C@H]2NC(=O)CCCCCCCCC)OC(CO)[C@@H](O)C1O (stereo partly shown) [Compound E5, Di-N-decanoyl-tunicamycin] | >400 | >400 | 10 | 9 | 53.5 (≈ 61.1 µM) | 400 (≈ 457 µM) | 100 (≈ 114 µM) | 0.39 (≈ 0.446 µM) | 0.0461 (≈ 0.0527 µM) | 12.5 (≈ 14.3 µM) | 12 | 0.39 (≈ 0.446 µM) | 0.114 (≈ 0.13 µM) | > 0.39 | > 75 | > 75 |  |
| CCCCCCCCCCC(=O)NC1C(OC2OC(C[C@@H](O)[C@H]3O[C@@H](n4ccc(=O)[nH]c4=O)[C@H](O)[C@@H]3O)C(O)C(O)[C@H]2NC(=O)CCCCCCCCCC)OC(CO)[C@@H](O)C1O (stereo partly shown) [Compound E6, Di-N-undecanoyl-tunicamycin] | >400 | >400 | 6 | 7 | 63.2 (≈ 69.9 µM) | 400 (≈ 443 µM) | 100 (≈ 111 µM) | 0.78 (≈ 0.864 µM) | 0.0878 (≈ 0.0972 µM) | 25 (≈ 27.7 µM) | 12 | 1.56 (≈ 1.73 µM) | 0.852 (≈ 0.943 µM) | > 6.25 | > 75 | > 75 | 1-week MIC [10]: 2.8 µg/mL; 2-week MIC [10]: 2.8 µg/mL; MIC ([10]; 168 h, read-out: 1-week MIC): 5.6 µg/mL (≈ 6.2 µM); MIC ([10]; 336 h, read-out: 2-week MIC): 5.6 µg/mL (≈ 6.2 µM) |
| CCCCCCCCCCCC(=O)NC1C(OC2OC(C[C@@H](O)[C@H]3O[C@@H](n4ccc(=O)[nH]c4=O)[C@H](O)[C@@H]3O)C(O)C(O)[C@H]2NC(=O)CCCCCCCCCCC)OC(CO)[C@@H](O)C1O (stereo partly shown) [Compound E7, Di-N-dodecanoyl-tunicamycin] | >400 | >400 |  |  | 81.9 (≈ 88 µM) | > 400 | 200 (≈ 215 µM) | 50 (≈ 53.7 µM) | 1.4 (≈ 1.51 µM) | > 200 | 8 | 100 (≈ 107 µM) | 58.9 (≈ 63.2 µM) | > 200 | > 75 | > 75 |  |
| NC1C(O)[C@H](O)C(CO)O[C@@H]1OC1O[C@H](C[C@@H](O)[C@@H]2O[C@@H](n3ccc(=O)[nH]c3=O)[C@H](O)[C@@H]2O)C(O)C(O)[C@H]1N (stereo partly drawn) [D, α-D-glucosamine-(1″-11′)-tunicamyl Uracil Dihydrochloride] |  |  |  |  |  |  |  |  |  |  |  |  |  |  |  |  | Antibacterial activity in disc diffusion test ([4]; 5 μg per disc): completely inactive; Antibacterial activity in disc diffusion test ([5]; 5 μg per disc): completely inactive |
